# Data from patent US7250397B2, “Antiarrhythmic peptides” (Zealand Pharma A/S, priority 2000, dated 2007).
# Entries after “also recorded” stand apart in the source; their conditions may differ.
# Assays:
# [1] = system: calcium-induced arrythmias; assay: Calcium-induced arrhythmia model in mice; assay type: in vivo; settings: mouse, in vivo, iv
# Description: The antiarrhythmic effects of compounds of this invention were tested in an in vivo model of calcium-induced arrythmias according to the model of Lynch et al.^[37]. […]. Commercial solutions of hypnorm and midazolam were diluted 1:1 in distilled water and one part diluted Hypnorm® is mixed with one part diluted midazolam.
# The anaesthesia was induced by s.c. administration in a dose of 0.05-0.075 μl/10 gram mouse. An i.v cannula was inserted into the tail vein. The lead II ECG signal was recorded continuously by positioning of a stainless steel ECG electrodes on the right forelimb and on the left hind limb. The ground electrode was placed on the right hind limb. The signal was amplified (x 5.000-10.000) and filtered (0.1-150 Hz) via a Hugo Sachs Electronic model 689 ECG module. The analogue signal was digitised via a 12 bit data acquisition board (Data Translation model DT321) and sampled at 1000 Hz using the Notocord HEM 3.1 software for Windows NT. After a 10-min equilibration period, the test sample of drug was injected into the tail vein. Mice pre-treated with vehicle were tested as a measure of the control level in untreated animals. The injection volume was 100 μl in all experiments. Infusion of CaCl2 (30 mg/ml, 0.1 ml/min≈100 mg/kg/min (calciumchlorid-2-hydrat, Riedel-de Häen, Germany)) was started 3 min after i.v. administration of drug or vehicle. The time lag to onset of 2nd degree AV-block was determined as the time from the start of CaCl2 infusion until the first arrhythmic event occured. An event of 2nd degree AV-block was defined as intermittent failure of the AV conduction characterised by a P-wave without the concomitant QRS complex.
# Responses were expressed relative to the time until 2nd degree AV-block occurred in vehicle treated mice.
# [2] = system: alkaline phosphatase (ALP) activity of human osteoblasts; assay: Alkaline phosphatase (ALP) assay in human osteoblasts; assay type: cell-based; settings: four days; 10^−13-10^−6 M; normal culture conditions
# Description: Human osteblast cells (hOB): Cells were isolated from human bone marrow obtained by puncture of the posterior iliac spine of healthy volunteers (aged 20-36): 10-15 ml marrow material was collected in 15 ml PBS+Ca,Mg (Life Technologies, Cat.No. 14040) with 100 U/ml Heparin (Sigma, Cat.No. H-3149). The mononuclear fraction of the marrow was isolated on a Lymphoprep gradient (Nycomed Pharma, Cat.No. 1001967), by centrifugation at 2200 rpm for 30 min. After harvesting, the mononuclear fraction was washed once with culture medium and centrifuged at 1800 rpm for 10 min. Subsequently cells were counted and plated in culture medium at 8×10^6 cells/100 mm dish. hOB medium (all reagents obtained from Life Technologies): MEM w/o Phenol Red w/Glutamax (Cat.No. 041-93013) supplemented with 10% heat inactivated fetal calf serum (Cat.No. 10106) and 0.1% Penicillin/Streptomycin (Cat.No. 15140). Medium was changed the following day and the cells were cultured at 37° C. in 5%CO2 with medium change every 7 days. After 3-4 weeks of culture the cells had reached 70% confluence. […]
# • Day 1: Cells were plated in 96-well plates at a conc. of 8000 cells/well (hOB) or 3000 cells/well (ROS) in 200 μl normal culture medium. • Day 2: Medium was changed on the cells. • Day 4: (Day 3 for ROS): Cells were washed with 200 μl MEM, 0.1% BSA (Sigma, Cat.No. A-9418). […] Absorbance was measured using a plate reader at 405 nm. […]
# [3] = system: isolated perfused rabbit hearts; assay: Isolated perfused rabbit hearts (Langendorff), APD90 dispersion
# [4] = system: ROS 17/2.8 cells; assay: Intercellular calcium wave propagation in ROS 17/2.8 cells; assay type: cell-based, rat; settings: 10^−8 M, 10 minutes; 48 hours hypoxia 3-6% O2 (2.2 cells before)
# Description: ROS 17/2.8 cells: Cells were cultured in 100 mm dishes at 37° C. with 5% CO2 and medium change every 2-3 days. ROS medium (all reagents obtained from Life Technologies) MEM (Cat.No. 31095) supplemented with 10% heat-inactivated calf serum (Cat.No. 16170), 1% NEAA (Cat.No. 11140), 1% Sodium Pyruvate (Cat.No. 11360), 1% L-Glutamine (Cat.No. 25030) and 0.1% Penicillin/Streptomycin (Cat.No. 15140). For video imaging experiments, cells were plated on coverslips at 2-3×10^5 cells/coverslip and cultured for 2-3 days before use.
# The cells cultured on coverslips were loaded with 5 μM fura-2-AM (Molecular Probes, Cat.No. F-1221), for 30 minutes at 37° C., and incubated in fresh medium for 20 minutes. Coverslips were then affixed to a PDMI-2 culture chamber (Medical Systems Corp.), maintained at 37° C. with superfused CO2, on a Zeiss Axiovert microscope. Intercellular calcium waves were induced by mechanical stimulation of a single cell using a borosilicate glass micro pipette affixed to an Eppendorf 5171 micromanipulator. Imaging was performed using a MetaMorph imaging system (Universal Imaging). The excitation light (340 and 380 nm) was provided by a monochromator (T.I.L.L. Photonics GmbH). Images were acquired with an intensified CCD camera (Dage MTI) and digitized with a Matrox MVP image processing board. […]
substance,measurement,setting,value
Ac-D-Tyr-D-Pro-D-4Hyp-Gly-D-Ala-Gly-NH2 [Compound 2],In vivo activity,[1],+++ (key: +++: >60% increase in time until arrhythmia; ++: 30-50% increase in time until arrhythmia; +: 15-29% increase in time until arrhythmia; (+): ≦15% increase in time until arrythmia)
same,ALP activity compared to untreated controls,[2],increased ALP activity at most of the concentrations tested; also recorded: stimulated ALP activity
same,"increase in APD90 dispersion during hypokalemic, acute myocardial ischemia",[3],prevented
same,average number of cells in the calcium wave,[4],5.4 cells
